Assay results published in US3932423A, “Imidazolido(1,5-c)thiazolidine-3-spiro-4-piperidines” (Yoshitomi Pharmaceutical Industries, priority 1973, dated 1976).

Experiments:
mice [1] = test: Reserpine Potentiation; assay type: in vivo, dd-strain, female; conditions: Mus musculus, po, 30 minutes before reserpine 10 mg./kg. i.p.; dose potentiating reserpine effect by 30 percent 15 minutes after reserpine; read-out: Reserpine Potentiation PD30
Description: Reserpine potentiation was measured by the method described by M. D. Aceto in "Toxicology and Applied Pharmacology," vol. 7, p. 329 ff. (1965). […] The degree of blepharoptosis of both eyes was observed 15, 60, 120 and 180 minutes after the administration of reserpine.

mice [2] = test: Methamphetamine Group Toxicity; conditions: Mus musculus, po, 5 h, read-out: Methamphetamine Group Toxicity, ED50
mice [3] = test: Suppression of Spontaneous Motility; assay type: in vivo, dd-strain, male; conditions: Mus musculus, ip; counted for 20 minutes, 40 minutes after administration; dose for 50 percent suppression
Description: The spontaneous motility of mice was counted by magnetic counter of photocell method according to P. B. Dews in "British Gournal of Pharmacology", vol. 8, p. 46 ff. (1953). Forty minutes after the intraperitoneal administration of the test compound, the spontaneous motility was counted for 20 minutes.

mice [4] = test: Suppression of Fighting Behavior; assay type: in vivo, dd-strain, female; conditions: Mus musculus, po, 60 minutes prior to electric foot-shock; dose to suppress 50 percent of fighting pairs
Description: 125, p. 28 ff. (1959). […] The ED50, the dose required to suppress 50 percent of fighting pairs, was determined graphically.

mice [5] = test: Antimescaline Effect; assay type: in vivo, female; conditions: Mus musculus, po, 60 minutes prior to mescaline sulfate 30 mg./kg. i.p.; prevention of scratching in 50 percent of animals
Description: A modification of the method of R. A. Turner [Screening Method in Pharmacology, Edited by R. A. Turner, p. 73, Academic Press (1965)] was used to study the prevention of scratching episodes induced by mescaline. The test compound was given to groups each of 6 female mice orally 60 minutes prior to treatment with mescaline sulfate (30 mg./kg. of body weight, intraperitoneal).

Acute Toxicity = test: Acute Toxicity; design: species or system mice, female; conditions: mouse, in vivo, po; lethal rate within two days
Description: The test compound was orally administered to groups each of 5 female mice respectively. The LD50 was calculated from the lethal rate (50 percent) within two days after administration of the test compound.

Structure (SMILES)	ED30 (mice [1]) [mg/kg]	ED50 (mice [2]) [mg/kg]	ED50 (mice [3]) [mg/kg]	ED50 (mice [4]) [mg/kg]	ED50 (mice [5]) [mg/kg]	LD50 at 48 h (Acute Toxicity) [mg/kg]
CN1C(=O)C2CSC3(CCN(CCCC(=O)c4ccc(F)cc4)CC3)N2C1=O (stereo not drawn) [Compound A, 5,7-dioxo-6-methylimidazolido[1,5-c]thiazolidine-3-spiro-4'-[1'-(4-p-fluorophenyl-4-oxobutyl)piperidine]]	1.9	1.1	0.1	2.6	0.1	> 1000
NC(=O)C1(N2CCCCC2)CCN(CCCC(=O)c2ccc(F)cc2)CC1 [Floropipamide]	2.5	9.2	1	5.6	1	> 1000
